The test system of this test is BDF1 mice, intracerebral L1210 leukemia, survival T/C. The test can be described thus: NCI In Vivo Anticancer Drug Screen. Data for tumor model L1210 Leukemia (intracerebral) in B6D2F1 (BDF1) mice. To be noted: higher = longer survival. The gist of the method:
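Survival measured in treated and vehicle-control tumour-bearing mice; value = T/C.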

The mark [1] stands for this setting: endpoint: mean survival time, dose: 12.0 mg/kg/injection, schedule: Q01DX001 (ip), vehicle: carboxymethylcellulose (CMC).

“And” between values parts separate entries of the source, which are not always exact repeats. Equal values may be shown once. Toxic doses and inconclusive results are not listed.

`CN(N=O)C(=O)NCCCCCNC(=O)N(C)N=O`: the T/C (endpoint: mean survival time, dose: 210.0 mg/kg/injection, schedule: Q01DX001 (ip), vehicle: carboxymethylcellulose (CMC)) is 113 % of control and the T/C (endpoint: mean survival time, dose: 420.0 mg/kg/injection, schedule: Q01DX001 (ip), vehicle: carboxymethylcellulose (CMC)) is 123 % of control.

In the case of `[N-]=[N+]=CC(=O)NCC(=O)NN`, the T/C runs as follows: (endpoint: mean survival time, dose: 300.0 mg/kg/injection, schedule: Q01DX Z (ip), vehicle: water) 101 % of control; (endpoint: mean survival time, dose: 400.0 mg/kg/injection, schedule: Q01DX Z (ip), vehicle: water) 87 % of control; (endpoint: mean survival time, dose: 500.0 mg/kg/injection, schedule: Q01DX Z (ip), vehicle: water) 87 % of control.

For `NC(Cc1ccc(N(CCCl)CCCl)cc1)C(=O)O` (configuration not stated), the T/C (endpoint: mean survival time, dose: 8.0 mg/kg/injection, schedule: Q01DX001 (ip), vehicle: carboxymethylcellulose (CMC)) is 119 % of control and the T/C under setting [1] is 117 % of control.

Consider `N=c1nc2n(cc1F)[C@@H]1O[C@H](CO)[C@@H](O)[C@@H]1O2`, for which the T/C (endpoint: median survival time, dose: 100.0 mg/kg/injection, schedule: Q01DX009 (ip), vehicle: saline) was 186 % of control; the T/C (endpoint: median survival time, dose: 200.0 mg/kg/injection, schedule: Q01DX009 (ip), vehicle: saline) is 204 % of control; the T/C (endpoint: median survival time, dose: 400.0 mg/kg/injection, schedule: Q01DX009 (ip), vehicle: saline) was 344 % of control.

For `CN(N=O)C(=O)Nc1c[nH]c(=O)[nH]c1=O`, the T/C is 103 % of control (endpoint: mean survival time, dose: 60.0 mg/kg/injection, schedule: Q01DX001 (ip), vehicle: saline); 104 % of control (endpoint: mean survival time, dose: 120.0 mg/kg/injection, schedule: Q01DX001 (ip), vehicle: saline); 108 % of control (endpoint: mean survival time, dose: 480.0 mg/kg/injection, schedule: Q01DX001 (ip), vehicle: saline); 86 % of control (endpoint: mean survival time, dose: 960.0 mg/kg/injection, schedule: Q01DX001 (ip), vehicle: saline).

On to `CCCCCCC(=O)NC1=C(N2CC2)C(=O)C(NC(=O)CCCCCC)=C(N2CC2)C1=O`, for which the T/C runs as follows: (endpoint: mean survival time, dose: 20.0 mg/kg/injection, schedule: Q01DX009 (ip), vehicle: Klucel (hydroxypropylcellulose) (HPC)) 100 % of control; (endpoint: mean survival time, dose: 40.0 mg/kg/injection, schedule: Q01DX009 (ip), vehicle: Klucel (hydroxypropylcellulose) (HPC)) 105 % of control; (endpoint: mean survival time, dose: 80.0 mg/kg/injection, schedule: Q01DX009 (ip), vehicle: Klucel (hydroxypropylcellulose) (HPC)) 120 % of control; (endpoint: mean survival time, dose: 160.0 mg/kg/injection, schedule: Q01DX009 (ip), vehicle: Klucel (hydroxypropylcellulose) (HPC)) 106 % of control.

With `COc1cccc2c1C(=O)c1c(O)c3c(c(O)c1C2=O)C[C@@](O)(C(C)=O)C[C@@H]3OC1CC(N)C(O)C(C)O1` (some centres not stated), the T/C (endpoint: mean survival time, dose: 1.08 mg/kg/injection, schedule: Q04DX003 (ip), vehicle: water) was 101 % of control; the T/C (endpoint: mean survival time, dose: 1.8 mg/kg/injection, schedule: Q04DX003 (ip), vehicle: water) was 101 % of control; the T/C (endpoint: mean survival time, dose: 3.0 mg/kg/injection, schedule: Q04DX003 (ip), vehicle: water) is 97 % of control; the T/C (endpoint: mean survival time, dose: 3.12 mg/kg/injection, schedule: Q01DX001 (ip), vehicle: water) is 102 % of control; the T/C (endpoint: mean survival time, dose: 5.0 mg/kg/injection, schedule: Q04DX003 (ip), vehicle: water) is 102 % of control; the T/C (endpoint: mean survival time, dose: 6.25 mg/kg/injection, schedule: Q01DX001 (ip), vehicle: water) is 97 % of control. Moreover, the T/C runs as follows: (endpoint: mean survival time, dose: 12.5 mg/kg/injection, schedule: Q01DX001 (ip), vehicle: water) 91 % of control; (endpoint: mean survival time, dose: 25.0 mg/kg/injection, schedule: Q01DX001 (ip), vehicle: water) 96 % of control; (endpoint: median survival time, dose: 1.08 mg/kg/injection, schedule: Q04DX003 (ip), vehicle: water) 97 % of control; (endpoint: median survival time, dose: 1.8 mg/kg/injection, schedule: Q04DX003 (ip), vehicle: water) 96 % of control; (endpoint: median survival time, dose: 3.0 mg/kg/injection, schedule: Q04DX003 (ip), vehicle: water) 96 % of control; (endpoint: median survival time, dose: 5.0 mg/kg/injection, schedule: Q04DX003 (ip), vehicle: water) 96 % of control. Also, the T/C (endpoint: median survival time, dose: 8.4 mg/kg/injection, schedule: Q04DX003 (ip), vehicle: water) was 95 % of control.

For the molecule `O=NN(CCCl)C(=O)Nc1ccc(SCC(=O)O)cc1`, the T/C under setting [1] is 95 % of control; the T/C (endpoint: mean survival time, dose: 18.0 mg/kg/injection, schedule: Q01DX001 (ip), vehicle: carboxymethylcellulose (CMC)) was 96 % of control; the T/C (endpoint: mean survival time, dose: 26.0 mg/kg/injection, schedule: Q01DX001 (ip), vehicle: carboxymethylcellulose (CMC)) is 88 % of control.

Consider `O=C1C(N2CC2)=C(N2CC2)C(=O)C(N2CC2)=C1N1CC1`, for which the T/C was 102 % of control (endpoint: mean survival time, dose: 0.02 mg/kg/injection, schedule: Q01DX009 (ip), vehicle: saline); 120 % of control (endpoint: mean survival time, dose: 0.04 mg/kg/injection, schedule: Q01DX009 (ip), vehicle: saline); 112 % of control (endpoint: mean survival time, dose: 0.16 mg/kg/injection, schedule: Q01DX009 (ip), vehicle: saline).

For `O=NN(CCCl)C(=O)N[C@@H]1CCCC[C@H]1NC(=O)N(CCCl)N=O`, the T/C is 118 % of control (endpoint: mean survival time, dose: 67.0 mg/kg/injection, schedule: Q01DX001 (ip), vehicle: carboxymethylcellulose (CMC)); 124 % of control (endpoint: mean survival time, dose: 72.0 mg/kg/injection, schedule: Q01DX001 (ip), vehicle: carboxymethylcellulose (CMC)); 124 % of control (endpoint: mean survival time, dose: 100.0 mg/kg/injection, schedule: Q01DX001 (ip), vehicle: carboxymethylcellulose (CMC)); 162 % of control (endpoint: mean survival time, dose: 150.0 mg/kg/injection, schedule: Q01DX001 (ip), vehicle: carboxymethylcellulose (CMC)); 166 % of control (endpoint: mean survival time, dose: 240.0 mg/kg/injection, schedule: Q01DX001 (ip), vehicle: carboxymethylcellulose (CMC)).

`CCCCn1cnc2c(SC3CCCC3)ncnc21`: the T/C runs as follows: (endpoint: mean survival time, dose: 125.0 mg/kg/injection, schedule: Q01DX001 (ip), vehicle: carboxymethylcellulose (CMC)) 101 % of control; (endpoint: mean survival time, dose: 250.0 mg/kg/injection, schedule: Q01DX001 (ip), vehicle: carboxymethylcellulose (CMC)) 108 % of control; (endpoint: mean survival time, dose: 500.0 mg/kg/injection, schedule: Q01DX001 (ip), vehicle: carboxymethylcellulose (CMC)) 119 % of control.

On to `CN(N=O)C(=O)NC(=O)N(C)N=O`, for which the T/C reads like this: (endpoint: mean survival time, dose: 27.5 mg/kg/injection, schedule: Q01DX001 (ip), vehicle: carboxymethylcellulose (CMC)) 107 % of control; (endpoint: mean survival time, dose: 54.0 mg/kg/injection, schedule: Q01DX001 (ip), vehicle: carboxymethylcellulose (CMC)) 104 % of control.

As to `O=NN(CCCl)C(=O)NC1[C@H](O)CCC[C@@H]1O` (some centres not stated), the T/C is 123 % of control (endpoint: mean survival time, dose: 2.6 mg/kg/injection, schedule: Q01DX001 (ip), vehicle: saline); 112 % of control (endpoint: mean survival time, dose: 4.0 mg/kg/injection, schedule: Q01DX001 (ip), vehicle: saline); 156 % of control (endpoint: mean survival time, dose: 9.0 mg/kg/injection, schedule: Q01DX001 (ip), vehicle: saline); 388 % of control (endpoint: mean survival time, dose: 14.0 mg/kg/injection, schedule: Q01DX001 (ip), vehicle: saline); 324 % of control (endpoint: mean survival time, dose: 22.0 mg/kg/injection, schedule: Q01DX001 (ip), vehicle: saline).

In the case of `Cc1ccc(S(=O)(=O)NC(=O)N(CCCl)N=O)cc1`, the T/C is, setting by setting: (endpoint: mean survival time, dose: 31.0 mg/kg/injection, schedule: Q01DX001 (ip), vehicle: other) 119 % of control; (endpoint: mean survival time, dose: 62.0 mg/kg/injection, schedule: Q01DX001 (ip), vehicle: other) 116 % of control; (endpoint: mean survival time, dose: 140.0 mg/kg/injection, schedule: Q01DX001 (ip), vehicle: other) 115 % of control.

`COC1=C(N2CC2)C(=O)C(OC)=C(N2CC2)C1=O`: the T/C (endpoint: mean survival time, dose: 0.12 mg/kg/injection, schedule: Q01DX009 (ip), vehicle: saline) was 101 % of control; the T/C (endpoint: mean survival time, dose: 0.25 mg/kg/injection, schedule: Q01DX009 (ip), vehicle: saline) is 95 % of control; the T/C (endpoint: mean survival time, dose: 0.5 mg/kg/injection, schedule: Q01DX009 (ip), vehicle: saline) is 104 % of control and 106 % of control and 98 % of control; the T/C (endpoint: mean survival time, dose: 1.0 mg/kg/injection, schedule: Q01DX009 (ip), vehicle: saline) is 105 % of control and 111 % of control and 121 % of control; the T/C (endpoint: mean survival time, dose: 2.0 mg/kg/injection, schedule: Q01DX009 (ip), vehicle: saline) was 114 % of control and 117 % of control; the T/C (endpoint: mean survival time, dose: 4.0 mg/kg/injection, schedule: Q01DX009 (ip), vehicle: saline) was 86 % of control.

In the case of `CC(=O)OC1CCC(NC(=O)N(CCCl)N=O)CC1` (configuration not stated), the T/C reads like this: (endpoint: mean survival time, dose: 24.0 mg/kg/injection, schedule: Q01DX001 (ip), vehicle: other) 364 % of control; (endpoint: mean survival time, dose: 36.0 mg/kg/injection, schedule: Q01DX001 (ip), vehicle: other) 500 % of control; (endpoint: mean survival time, dose: 54.0 mg/kg/injection, schedule: Q01DX001 (ip), vehicle: other) 423 % of control.

On to `CN(Cc1cnc2nc(N)nc(N)c2n1)c1c(Cl)cc(C(=O)NC(CCC(=O)O)C(=O)O)cc1Cl` (configuration not stated), for which the T/C was 91 % of control (endpoint: mean survival time, dose: 285.0 mg/kg/injection, schedule: Q01DX001 (ip), vehicle: carboxymethylcellulose (CMC)); 90 % of control (endpoint: mean survival time, dose: 434.0 mg/kg/injection, schedule: Q01DX001 (ip), vehicle: carboxymethylcellulose (CMC)); 95 % of control (endpoint: mean survival time, dose: 647.0 mg/kg/injection, schedule: Q01DX001 (ip), vehicle: carboxymethylcellulose (CMC)).

Values taken from PubChem BioAssay AID252 (DTP/NCI, 2004).
